Values of other authors, collected in patent US10058529B2, “Nutraceutical composition for PDE4 inhibition, enhanced dopamine metabolism and long term potentiation” (priority 2013, dated 2018).
Values belong to the compound of their own block, whether it stands above or below them.

Experiments:
[1] = test system: phosphodiesterase enzymes (PDE 1 through 5)
[2] = co-administered piperine
acetylcholine = details: in vivo
[3] = low doses
PDE4 = details: reference 38

inhibition of phosphodiesterase enzymes (PDE 1 through 5) [1]: can inhibit
Compound: O=c1cc(-c2ccc(O)c(O)c2)oc2cc(O)cc(O)c12 [Luteolin, luteolin]

bioavailability of resveratrol [2]: enhance the bioavailability
Compound: O=C(/C=C/C=C/c1ccc2c(c1)OCO2)N1CCCCC1 [Piperine, piperine]

Compound: CC(=O)O[C@H](CC(=O)[O-])C[N+](C)(C)C [Acetyl-L-carnitine, acetyl-L-carnitine]
levels of acetylcholine in the brain (acetylcholine): increase

Compound: COc1ccc(C2CNC(=O)C2)cc1OC1CCCC1 (centres unmarked) [rolipram]
side effect [3]: emesis (vomiting) at low doses

Compound: COc1ccc([C@@]23C=CC(=O)C[C@@H]2N(C)CC3)cc1OC [mesembrenone]
PDE4 inhibition (PDE4): significantly inhibit
